Measurements published in patent US20230339896A1, “HPK1 INHIBITORS AND USES THEREOF” (QILU REGOR THERAPEUTICS INC., priority 2020, published 2023).
Where two headings read alike, the source gives them in different places.

Molecular target: HPK1 (Homo sapiens (Human), UniProt Q92918)
Experiment: HPK1 biochemical assay (ADP-GLO Kinase Assay)
Source text: This example used the ADP-GLO™ Kinase Assay to measure the effect of potential HPK1 inhibitor compounds on HPK1 kinase activity.
The ADP-GLO™ Kinase Assay (Promega Corp., Madison, WI) measures ADP formed from a kinase reaction. According to the manufacture, the ADP formed in a kinase assay is first converted into ATP, which is then used to generate light in a luciferase reaction. The luminescence generated correlates with kinase activity. An exemplary experimental setting is described below, though minor adjustments can be made in individual assays.
Serial 3-fold dilution of compoounds from 10 µM (top concentration) to 0.508 nM (lowest concentration). Positive control is 10 µM Reference + enzyme + substrate. Negative control is 1% DMSO + enzyme + substrate.
40 mM Tris pH7.5; 20 mM MgC12, 0.1 mg/ml BSA, 50 µM DTT Buffer stock
• 1) The compounds were diluted to 1 mM, by mixing 10 µL of 10 mM respective compound stocks with 90 µL of DMSO. • 2) The compounds were then diluted 3-fold for 10 doses (5 µL to 10 µL dilution) by BRAVO. The top compound conc. was 1 mM (100×), DMSO Conc. was 100%. • 3) Transfer 100 nL of each diluted compound sample to 384-well plate (Corning-4512) by ECHO. • 4) Centrifuge the plate at 1,500 rpm for 1 minute.
20 µM ATP, 0.2 µg/µL MBP in Kinase Buffer (final concentration: 10 µM ATP, 0.1 µg/µL MBP)
• 5. Preparation of 2× HPK1 working solution with assay buffer. HPK1 final concentration was 0.6 ng/µL. […] Add 5 µL/well of 2× HPK1 working solution, Centrifuge at 1,500 rpm for 1 minute. • 7. Add 5 µL/well of 2× ATP-Substrate, Centrifuge at 1,500 rpm for 1 minute. • 8. Incubate at 25° C. for 1 hour (or 6 hours for compounds with high potency). • 9. Add 5 µL/well ADP-GLO™ Reagent to stop the kinase reaction and deplete the unconsumed ATP. Centrifuge at 1,500 rpm for 1 minute. Incubate at 25° C. for 40 min. • 10. Add 10 µL of Kinase Detection Reagent to convert ADP to ATP. Centrifuge at 1,500 rpm for 1 minute. Incubate at 25° C. for 40 min. • 11. Record luminescence signal on an Envision plate reader (384-CTG).
The percent (%) inhibition at each concentration of compound is calculated based on and relative to the signal in the High and Low control wells contained within each assay plate. […] The concentrations and % inhibition values for tested compounds were plotted and the concentration of compound required for 50% inhibition (IC50) was determined with a Three-parameter logistic dose response equation. The endpoint value (IC50) for the reference peptide/compound was evaluated in each experiment as a quality control measure. If the endpoint value was within 3-fold of the expected value, then the experiment was deemed acceptable.

[1] = ADP-GLO, 10 µM ATP, MBP substrate, read-out: HPK1 IC50
[2] = Table 12-1, read-out: HPK1 inhibition activities

Sequence of HPK1 (Q92918 whole entry): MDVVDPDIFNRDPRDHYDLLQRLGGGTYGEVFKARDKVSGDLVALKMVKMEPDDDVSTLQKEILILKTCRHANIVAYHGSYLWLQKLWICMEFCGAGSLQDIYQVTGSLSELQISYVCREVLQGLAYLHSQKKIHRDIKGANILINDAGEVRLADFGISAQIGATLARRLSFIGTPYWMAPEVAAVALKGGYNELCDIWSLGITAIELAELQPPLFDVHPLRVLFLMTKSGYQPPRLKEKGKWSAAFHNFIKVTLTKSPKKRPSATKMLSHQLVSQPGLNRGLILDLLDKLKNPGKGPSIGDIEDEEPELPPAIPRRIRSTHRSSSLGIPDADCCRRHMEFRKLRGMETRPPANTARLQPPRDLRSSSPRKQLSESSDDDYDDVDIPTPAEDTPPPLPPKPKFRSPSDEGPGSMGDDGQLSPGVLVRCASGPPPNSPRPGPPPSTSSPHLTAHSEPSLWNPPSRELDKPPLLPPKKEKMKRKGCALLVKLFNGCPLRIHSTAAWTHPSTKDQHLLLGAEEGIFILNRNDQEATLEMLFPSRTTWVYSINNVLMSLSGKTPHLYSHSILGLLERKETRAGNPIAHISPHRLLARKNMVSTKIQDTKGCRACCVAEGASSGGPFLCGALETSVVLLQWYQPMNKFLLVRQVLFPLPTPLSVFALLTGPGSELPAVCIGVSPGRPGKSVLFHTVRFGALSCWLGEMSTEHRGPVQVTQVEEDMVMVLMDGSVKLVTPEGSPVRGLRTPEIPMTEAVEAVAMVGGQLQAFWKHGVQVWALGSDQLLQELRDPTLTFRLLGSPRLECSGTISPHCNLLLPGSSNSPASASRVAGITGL

Row | SMILES | IC50 [1] | IC50 [2]
1 | COc1cc2c(cc1Nc1ncc(Cl)c(N3CC(C)(CC(=O)O)c4ccccc43)n1)CN(C)CC2 (single isomer, unassigned) [Example 2, (R)-2-(1-(5-chloro-2-((6-methoxy-2-methyl-1,2,3,4-tetrahydroisoquinolin-7-yl)amino)pyrimidin-4-yl)-3-methylindolin-3-yl)acetic acid or (S)-2-(1-(5-chloro-2-((6-methoxy-2-methyl-1,2,3,4-tetrahydroisoquinolin-7-yl)amino)pyrimidin-4-yl)-3-methylindolin-3-yl)acetic acid] | 0.2 nM | < 1 nM
2 | CN1CCc2cc(F)c(Nc3ncc(Cl)c(N4C[C@](C)(CC(=O)O)c5ccccc54)n3)cc2C1 (single isomer, unassigned) [Example 5, (R)-2-[1-[5-chloro-2-[(6-fluoro-2-methyl-3,4-dihydro-1H-isoquinolin-7-yl)amino]pyrimidin-4-yl]-3-methyl-indolin-3-yl]acetic acid or (S)-2-[1-[5-chloro-2-[(6-fluoro-2-methyl-3,4-dihydro-1H-isoquinolin-7-yl)amino]pyrimidin-4-yl]-3-methyl-indolin-3-yl]acetic acid] | 0.2 nM | < 1 nM
3 | COc1cc2c(cc1Nc1ncc(Cl)c(N3CC(C(=O)O)c4ccccc43)n1)CN(C)CC2 (centres unmarked) [Compound 7, reference compound] | 1 nM | 
4 | COc1cc2c(cc1Nc1ncc(Cl)c(N3CC(CC(=O)O)c4ccccc43)n1)CN(C)CC2 (centres unmarked) [Compound 8, reference compound] | 1.5 nM | 
5 | COc1cc2c(cc1Nc1ncc(Cl)c(N3CC(C)(CC(=O)O)c4ccc(F)cc43)n1)CN(C)CC2 (centres unmarked) [Compound 10, reference compound] | 0.5 nM | 
6 | COc1cc2c(cc1Nc1ncc(Cl)c(N3CC(C)(CC(=O)O)c4ccccc43)n1)CN(C)CC2 (centres unmarked) [Example 1, 2-(1-(5-chloro-2-((6-methoxy-2-methyl-1,2,3,4-tetrahydroisoquinolin-7-yl)amino)pyrimidin-4-yl)-3-methylindolin-3-yl)acetic acid] | 0.5 nM | < 1 nM
7 | CN1CCc2cc(F)c(Nc3ncc(Cl)c(N4CC(C)(CC(=O)O)c5ccccc54)n3)cc2C1 (centres unmarked) [Example 4, 2-(1-(5-chloro-2-((6-fluoro-2-methyl-1,2,3,4-tetrahydroisoquinolin-7-yl)amino)pyrimidin-4-yl)-3-methylindolin-3-yl)acetic acid] | 0.7 nM | < 1 nM
